Data taken from patent US20080200337A1, “Mixed herbicide compositions for paddy field” (Bayer CropScience, priority 2007, published 2008).

Legend:
Format in all cases: in vivo
[1] = tested on: submerged direct sown paddy (RD-23); test: Phytotoxicity, spray treatment at 1.5 to 3.0 leaf-stage (Test Example 3); details: spray at 1.5 to 3.0 leaf-stage, 4 weeks later, RD-23
Description: (§1) Carrier: 5 parts by weight of acetone
(§2) Surfactant: one part by weight of benzyloxy polyglycol ether.
(§3) Above described carrier and surfactant are mixed with one part by weight of the active compound ((a) ingredient and (b) ingredient) and the resulting preparation is then diluted with water to obtain given amount of the test drug (the formulation).
(§4) In a greenhouse, seeds of rice (var.: Nipponbare and RD23) and weeds (Echinochloa oryzicola Vasing, Echinochloa cruss-galli, Leptochloa chinensis, Cyperus difformis L., Cyperus iria L., annual broad-leaved weeds (Monochoria vaginalis Presl, Lindernia procumbens Philcox, Lindernia dubia L. Penn., Rotala indica Koehne, Elatine triandra Schk, Ammannia multiflora Roxb. and the like)) were sown in a 500 cm^2 pot filled with paddy field soil and covered with soil. Water was added to the pot (a depth of 0 cm) to be a wet condition, and each test plant was grown in the greenhouse to 1.5 to 3.0 leaf-stage, after then a prescribed, diluted solution of the formulation of each active compound and each herbicidal compound in the table were separately or simultaneously sprayed over the pots with plants. At 3 days after the treatment, the water depth of 3 cm was maintained, and 4 weeks later, herbicidal effect was then examined. In the assessment of the herbicidal effect and the phytotoxicity, 100% refers to complete death and 0% refers to no effect or no phytotoxicity.

[2] = tested on: submerged direct sown paddy (Nipponbare); test: as above; details: spray at 1.5 to 3.0 leaf-stage, 4 weeks later
Description: as §1, §2, §3, §4

[3] = tested on: Cyperus iria L.; test: Weed control by spray treatment at 1.5 to 3.0 leaf-stage (Test Example 3); details: spray at 1.5 to 3.0 leaf-stage, 4 weeks later
Description: as §1, §2, §3, §4

[4] = tested on: annual broad-leaved weeds; test: as above; details: spray at 1.5 to 3.0 leaf-stage, 4 weeks later
Description: as §1, §2, §3, §4

[5] = tested on: Cyperus difformis L.; test: as above; details: spray at 1.5 to 3.0 leaf-stage, 4 weeks later
Description: as §1, §2, §3, §4

[6] = tested on: Echinochloa oryzicola Vasing; test: as above; details: spray at 1.5 to 3.0 leaf-stage, 4 weeks later
Description: as §1, §2, §3, §4

[7] = tested on: Monochoria vaginalis Presl; test: as above; details: spray at 1.5 to 3.0 leaf-stage, 4 weeks later
Description: as §1, §2, §3, §4

[8] = tested on: Echinochloa cruss-galli; test: as above; details: spray at 1.5 to 3.0 leaf-stage, 4 weeks later
Description: as §1, §2, §3, §4

[9] = tested on: Leptochloa chinensis; test: as above; details: spray at 1.5 to 3.0 leaf-stage, 4 weeks later
Description: as §1, §2, §3, §4

[10] = tested on: Echinochloa; test: Weed control, flooded paddy field, treatment at 1 leaf-stage (Test Example 1); details: after 4 weeks
Description: as §1, §2, §3
(§5) In a greenhouse, seeds or tubers of Echinochloa, Scirpus juncoides Roxburgh, Monochoria vaginalis Presl, annual broad-leaved weeds (Lindernia procumbens Philcox, Lindernia dubia L. Penn., Rotala indica Koehne, Elatine triandra Schk, Ammannia multiflora Roxb.), Cyperus serotinus Rottboel and Sagittaria pygmaea Miq. were inoculated in a 500 cm^2 pot filled with paddy field soil. After 2 leaf-stage of rice were transplanted, water was poured to a depth of about 3 cm. At 1.0 leaf-stage of Echinochloa oryzicola Vasing, a prescribed, diluted solution of the formulation of each active compound and each herbicidal compound in the table was separately or simultaneously applied to the surface of water. After the treatment, the water depth of 3 cm was maintained, and herbicidal effect was examined after 4 weeks. In the assessment of the herbicidal effect and the phytotoxicity, 100% refers to complete death and 0% refers to no effect or no phytotoxicity.

[11] = tested on: annual broad-leaved weeds; test: as above; details: after 4 weeks
Description: as §1, §2, §3, §5

[12] = tested on: Sagittaria pygmaea Miq.; test: as above; details: after 4 weeks
Description: as §1, §2, §3, §5

[13] = tested on: Monochoria vaginalis Presl; test: as above; details: after 4 weeks
Description: as §1, §2, §3, §5

[14] = tested on: Scirpus juncoides Roxburgh; test: as above; details: after 4 weeks
Description: as §1, §2, §3, §5

[15] = tested on: Cyperus serotinus Rottboel; test: as above; details: after 4 weeks
Description: as §1, §2, §3, §5

[16] = tested on: transplanted rice; test: Phytotoxicity, flooded paddy field, treatment at 3 leaf-stage (Test Example 2); details: treatment at 3 leaf-stage, after 4 weeks
Description: as §1, §2, §3
as §5, with “Echinochloa, Cyperus difformis L.,” for “Echinochloa,”, “3.0” for “1.0”, “Echinochloa,” for “Echinochloa oryzicola Vasing,”

[17] = tested on: transplanted rice; test: Phytotoxicity, flooded paddy field, treatment at 1 leaf-stage (Test Example 1); details: treatment at 1 leaf-stage, after 4 weeks
Description: as §1, §2, §3, §5

[18] = tested on: Echinochloa; test: Weed control, flooded paddy field, treatment at 3 leaf-stage (Test Example 2); details: after 4 weeks
Description: as §1, §2, §3
as §5, with “Echinochloa, Cyperus difformis L.,” for “Echinochloa,”, “3.0” for “1.0”, “Echinochloa,” for “Echinochloa oryzicola Vasing,”

[19] = tested on: annual broad-leaved weeds; test: as above; details: after 4 weeks
Description: as §1, §2, §3
as §5, with “Echinochloa, Cyperus difformis L.,” for “Echinochloa,”, “3.0” for “1.0”, “Echinochloa,” for “Echinochloa oryzicola Vasing,”

[20] = tested on: Sagittaria pygmaea Miq.; test: as above; details: after 4 weeks
Description: as §1, §2, §3
as §5, with “Echinochloa, Cyperus difformis L.,” for “Echinochloa,”, “3.0” for “1.0”, “Echinochloa,” for “Echinochloa oryzicola Vasing,”

[21] = tested on: Monochoria vaginalis Presl; test: as above; details: after 4 weeks
Description: as §1, §2, §3
as §5, with “Echinochloa, Cyperus difformis L.,” for “Echinochloa,”, “3.0” for “1.0”, “Echinochloa,” for “Echinochloa oryzicola Vasing,”

[22] = tested on: Scirpus juncoides Roxburgh; test: as above; details: after 4 weeks
Description: as §1, §2, §3
as §5, with “Echinochloa, Cyperus difformis L.,” for “Echinochloa,”, “3.0” for “1.0”, “Echinochloa,” for “Echinochloa oryzicola Vasing,”

[23] = tested on: Cyperus serotinus Rottboel; test: as above; details: after 4 weeks
Description: as §1, §2, §3
as §5, with “Echinochloa, Cyperus difformis L.,” for “Echinochloa,”, “3.0” for “1.0”, “Echinochloa,” for “Echinochloa oryzicola Vasing,”

COc1nc(OC)nc(C(=O)c2cccc(F)c2N(C)S(=O)(=O)C(F)F)n1 [(a-1)]
Phytotoxicity (%) ORYSW*^2 ([1]; 30 g ai/ha): 5%
Phytotoxicity (%) ORYSW*^2 ([1]; 50 g ai/ha): 10%
Phytotoxicity (%) ORYSW*^1 ([2]; 30 g ai/ha): 5%
Phytotoxicity (%) ORYSW*^1 ([2]; 50 g ai/ha): 10%
Herbicidal effect (%) CYPIR ([3]; 30 g ai/ha): 100%
Herbicidal effect (%) CYPIR ([3]; 50 g ai/ha): 100%
Herbicidal effect (%) BBBBB ([4]; 30 g ai/ha): 70%
Herbicidal effect (%) BBBBB ([4]; 50 g ai/ha): 70%
Herbicidal effect (%) CYPDI ([5]; 30 g ai/ha): 100%
Herbicidal effect (%) CYPDI ([5]; 50 g ai/ha): 100%
Herbicidal effect (%) ECHOR ([6]; 30 g ai/ha): 100%
Herbicidal effect (%) ECHOR ([6]; 50 g ai/ha): 100%
Herbicidal effect (%) MOOVP ([7]; 30 g ai/ha): 85%
Herbicidal effect (%) MOOVP ([7]; 50 g ai/ha): 85%
Herbicidal effect (%) ECHCG ([8]; 30 g ai/ha): 100%
Herbicidal effect (%) ECHCG ([8]; 50 g ai/ha): 100%
Herbicidal effect (%) LEFCH ([9]; 30 g ai/ha): 75%
Herbicidal effect (%) LEFCH ([9]; 50 g ai/ha): 90%
Herbicidal effect (%) ECHSS ([10]; 30 g ai/ha): 93%
Herbicidal effect (%) ECHSS ([10]; 50 g ai/ha): 95%
Herbicidal effect (%) BBBBB ([11]; 30 g ai/ha): 25%
Herbicidal effect (%) BBBBB ([11]; 50 g ai/ha): 45%
Herbicidal effect (%) SAGPY ([12]; 30 g ai/ha): 70%
Herbicidal effect (%) SAGPY ([12]; 50 g ai/ha): 90%
Herbicidal effect (%) MOOVP ([13]; 30 g ai/ha): 25%
Herbicidal effect (%) MOOVP ([13]; 50 g ai/ha): 47%
Herbicidal effect (%) SCPSS ([14]; 30 g ai/ha): 85%
Herbicidal effect (%) SCPSS ([14]; 50 g ai/ha): 87%
Herbicidal effect (%) CYPSEE ([15]; 30 g ai/ha): 90%
Herbicidal effect (%) CYPSEE ([15]; 50 g ai/ha): 93%
Phytotoxicity (%) ORYSP ([16]; 30 g ai/ha): 0%
Phytotoxicity (%) ORYSP ([16]; 50 g ai/ha): 0%
Phytotoxicity (%) ORYSP ([17]; 30 g ai/ha): 0%
Phytotoxicity (%) ORYSP ([17]; 50 g ai/ha): 0%
Herbicidal effect (%) ECHSS ([18]; 30 g ai/ha): 90%
Herbicidal effect (%) ECHSS ([18]; 50 g ai/ha): 90%
Herbicidal effect (%) BBBBB ([19]; 30 g ai/ha): 21%
Herbicidal effect (%) BBBBB ([19]; 50 g ai/ha): 30%
Herbicidal effect (%) SAGPY ([20]; 30 g ai/ha): 70%
Herbicidal effect (%) SAGPY ([20]; 50 g ai/ha): 73%
Herbicidal effect (%) MOOVP ([21]; 30 g ai/ha): 20%
Herbicidal effect (%) MOOVP ([21]; 50 g ai/ha): 45%
Herbicidal effect (%) SCPSS ([22]; 30 g ai/ha): 80%
Herbicidal effect (%) SCPSS ([22]; 50 g ai/ha): 83%
Herbicidal effect (%) CYPSEE ([23]; 30 g ai/ha): 90%
Herbicidal effect (%) CYPSEE ([23]; 50 g ai/ha): 90%

COc1nc(OC)nc(C(=O)c2cccc(Cl)c2N(C)S(=O)(=O)C(F)F)n1 [(a-2)]
Phytotoxicity (%) ORYSW*^2 ([1]; 30 g ai/ha): 5%
Phytotoxicity (%) ORYSW*^2 ([1]; 50 g ai/ha): 10%
Phytotoxicity (%) ORYSW*^1 ([2]; 30 g ai/ha): 5%
Phytotoxicity (%) ORYSW*^1 ([2]; 50 g ai/ha): 10%
Herbicidal effect (%) CYPIR ([3]; 30 g ai/ha): 100%
Herbicidal effect (%) CYPIR ([3]; 50 g ai/ha): 100%
Herbicidal effect (%) BBBBB ([4]; 30 g ai/ha): 70%
Herbicidal effect (%) BBBBB ([4]; 50 g ai/ha): 85%
Herbicidal effect (%) CYPDI ([5]; 30 g ai/ha): 100%
Herbicidal effect (%) CYPDI ([5]; 50 g ai/ha): 100%
Herbicidal effect (%) ECHOR ([6]; 30 g ai/ha): 100%
Herbicidal effect (%) ECHOR ([6]; 50 g ai/ha): 100%
Herbicidal effect (%) MOOVP ([7]; 30 g ai/ha): 40%
Herbicidal effect (%) MOOVP ([7]; 50 g ai/ha): 65%
Herbicidal effect (%) ECHCG ([8]; 30 g ai/ha): 100%
Herbicidal effect (%) ECHCG ([8]; 50 g ai/ha): 100%
Herbicidal effect (%) LEFCH ([9]; 30 g ai/ha): 65%
Herbicidal effect (%) LEFCH ([9]; 50 g ai/ha): 65%

COc1nc(OC)nc(C(O)c2cccc(Cl)c2N(C)S(=O)(=O)C(F)F)n1 (stereo not shown) [(a-4)]
Phytotoxicity (%) ORYSW*^2 ([1]; 30 g ai/ha): 0%
Phytotoxicity (%) ORYSW*^2 ([1]; 50 g ai/ha): 0%
Phytotoxicity (%) ORYSW*^1 ([2]; 30 g ai/ha): 0%
Phytotoxicity (%) ORYSW*^1 ([2]; 50 g ai/ha): 5%
Herbicidal effect (%) CYPIR ([3]; 30 g ai/ha): 100%
Herbicidal effect (%) CYPIR ([3]; 50 g ai/ha): 100%
Herbicidal effect (%) BBBBB ([4]; 30 g ai/ha): 65%
Herbicidal effect (%) BBBBB ([4]; 50 g ai/ha): 75%
Herbicidal effect (%) CYPDI ([5]; 30 g ai/ha): 100%
Herbicidal effect (%) CYPDI ([5]; 50 g ai/ha): 100%
Herbicidal effect (%) ECHOR ([6]; 30 g ai/ha): 100%
Herbicidal effect (%) ECHOR ([6]; 50 g ai/ha): 100%
Herbicidal effect (%) MOOVP ([7]; 30 g ai/ha): 25%
Herbicidal effect (%) MOOVP ([7]; 50 g ai/ha): 25%
Herbicidal effect (%) ECHCG ([8]; 30 g ai/ha): 100%
Herbicidal effect (%) ECHCG ([8]; 50 g ai/ha): 100%
Herbicidal effect (%) LEFCH ([9]; 30 g ai/ha): 50%
Herbicidal effect (%) LEFCH ([9]; 50 g ai/ha): 50%
